Assay results: PMC3688631 (ACS medicinal chemistry letters, 2013)
pIC50: −log10 of the molar value.

What was measured:
[1] = tested on: Akt phosphorylation in MDA-MB-468; experiment: Cellular inhibition of Akt phosphorylation; format: cell-based; conditions: Homo sapiens, MDA-MB-468, read-out: inhibition of Akt phosphorylation IC50
96 kinases = experiment: KinomeScan screen versus another 96 kinases; format: binding
PI3Kβ D862Q = PI3Kβ D862Q (Homo sapiens, UniProt P42338, D862Q); conditions: cited from earlier work
Sequence of PI3Kβ D862Q (P42338 whole entry D862Q): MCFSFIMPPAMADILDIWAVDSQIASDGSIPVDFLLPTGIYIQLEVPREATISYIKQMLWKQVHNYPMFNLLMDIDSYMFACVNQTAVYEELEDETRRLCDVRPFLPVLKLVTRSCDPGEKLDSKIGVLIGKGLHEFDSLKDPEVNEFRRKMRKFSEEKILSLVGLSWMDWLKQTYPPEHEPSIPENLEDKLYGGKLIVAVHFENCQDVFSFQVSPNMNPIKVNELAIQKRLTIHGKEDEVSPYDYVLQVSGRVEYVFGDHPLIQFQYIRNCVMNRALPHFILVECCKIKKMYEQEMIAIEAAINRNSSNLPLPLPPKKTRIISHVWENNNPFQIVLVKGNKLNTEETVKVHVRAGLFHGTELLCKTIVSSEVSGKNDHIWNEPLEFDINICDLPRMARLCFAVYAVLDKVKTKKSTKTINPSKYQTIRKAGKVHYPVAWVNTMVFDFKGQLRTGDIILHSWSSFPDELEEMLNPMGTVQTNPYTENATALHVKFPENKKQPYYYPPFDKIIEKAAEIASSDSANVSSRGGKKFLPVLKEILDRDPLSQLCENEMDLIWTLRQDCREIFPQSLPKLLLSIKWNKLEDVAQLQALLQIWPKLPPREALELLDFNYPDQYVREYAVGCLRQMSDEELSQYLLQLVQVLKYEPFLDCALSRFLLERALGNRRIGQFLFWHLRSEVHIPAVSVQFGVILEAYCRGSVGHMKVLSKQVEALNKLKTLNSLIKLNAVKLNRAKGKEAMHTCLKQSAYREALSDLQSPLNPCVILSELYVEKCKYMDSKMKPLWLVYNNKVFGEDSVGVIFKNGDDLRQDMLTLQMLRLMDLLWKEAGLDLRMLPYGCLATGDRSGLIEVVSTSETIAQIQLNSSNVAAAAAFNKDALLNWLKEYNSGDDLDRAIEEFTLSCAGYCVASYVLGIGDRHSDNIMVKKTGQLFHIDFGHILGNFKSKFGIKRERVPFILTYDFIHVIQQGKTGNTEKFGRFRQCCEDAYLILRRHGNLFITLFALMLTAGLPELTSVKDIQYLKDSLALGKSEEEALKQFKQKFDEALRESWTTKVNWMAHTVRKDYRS
Sequence of PI3Kβ D862Q (P27986 whole entry partner): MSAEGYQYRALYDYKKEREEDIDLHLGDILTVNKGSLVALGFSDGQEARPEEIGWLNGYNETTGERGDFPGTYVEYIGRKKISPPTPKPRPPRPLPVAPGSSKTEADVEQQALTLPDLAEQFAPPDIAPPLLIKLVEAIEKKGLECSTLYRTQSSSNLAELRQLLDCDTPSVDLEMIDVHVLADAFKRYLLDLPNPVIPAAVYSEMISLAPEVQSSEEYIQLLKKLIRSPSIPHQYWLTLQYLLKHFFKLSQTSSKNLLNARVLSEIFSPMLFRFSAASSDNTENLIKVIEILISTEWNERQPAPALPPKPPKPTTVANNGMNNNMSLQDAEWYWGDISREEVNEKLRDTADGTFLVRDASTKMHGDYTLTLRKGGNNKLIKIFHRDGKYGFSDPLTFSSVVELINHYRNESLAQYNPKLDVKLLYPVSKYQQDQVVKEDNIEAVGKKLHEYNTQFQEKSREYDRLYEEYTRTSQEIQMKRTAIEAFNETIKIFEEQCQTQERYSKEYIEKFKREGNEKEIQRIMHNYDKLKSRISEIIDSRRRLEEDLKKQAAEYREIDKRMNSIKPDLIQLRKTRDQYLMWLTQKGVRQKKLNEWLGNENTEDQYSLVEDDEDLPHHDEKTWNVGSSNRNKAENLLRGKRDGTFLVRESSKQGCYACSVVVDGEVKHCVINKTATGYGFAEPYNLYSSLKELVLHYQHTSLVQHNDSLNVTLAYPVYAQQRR

| pIC50 [1] | SMILES | KinomeScan binding affinity versus another 96 kinases (96 kinases) | effect of mutation D862Q in PI3Kβ on inhibition (PI3Kβ D862Q) |
| --- | --- | --- | --- |
| > 8.00 | N[C@@H](Cc1ccccc1)C(=O)N1CCN(c2nc(N3CCOCC3)nc(-n3c(C(F)F)nc4ccccc43)n2)CC1 [Compound 21] | only the class II PI3K PI3KC2β showed binding affinity comparable to that seen for PI3Kβ |  |
|  | Cc1cc(C(C)Nc2ccccc2)c2nc(N3CCOCC3)cc(=O)n2c1 (stereo not drawn) [TGX221] |  | unaffected |
